What all share (type): cell-based, human
Data set [1] relates to NT2/D1 cells. Kind of data set: cell viability assay (trypan blue) and DNA fragmentation analysis after STS treatment. As for the experimental part: (§1) The NT2/D1 cells were seeded (5×10^6 cells per 10 cm Petri dish) in Dulbecco's modified Eagle's medium (DMEM/F-12; Invitrogen) supplemented with 10% heat inactivated fetal bovine serum (FBS; Invitrogen), 0.4 μl/ml penicillin-streptomycin (Invitrogen), and 4 mM glutamine (Invitrogen) and maintained in a humidified atmosphere of 5% CO2/95% air at 37° C. For astrocytic differentiation, 1×10^6 cells were seeded in a 6 well plate and treated three times a week for 3 weeks with 40 nM STS (Sigma). Cells were split twice a week by short exposure to trypsin/EDTA (Invitrogen). Subsequently, these NT2/A cells were evaluated for expression of astrocytic markers and […] by RT-PCR and western blot analysis. After incubation with a different time and concentration of STS, cells were trypsinized and viable cells were counted with a hemocytometer using trypan blue exclusive assay.

The subject of data set [2] is NT2/D1 cells. The experiment in a line: STS-induced astrocytic differentiation, morphology by microscopy. As to conditions: 40 nM STS. The procedure: as §1
Typical fluorescent microscopic pictures of the transfected cell were taken 48 hr after the transfection in a 8 well chamber slides. The cells expressing EGFP were detected by green fluorescence.

Data set [3] deals with NT2/D1 cells. Kind of data set: RT-PCR of astrocyte specific and APP gene expression in treated NT2 cells. As for the experimental part:
as §1
Total RNA was extracted from the cells and 1 μg of the RNA was reverse-transcribed and amplified using the SuperScript™ ONE STEP™ RT-PCR System (Invitrogen) with the following primers.

“Also recorded” adds a separate entry of the source.

In the case of `CN[C@@H]1C[C@H]2O[C@@](C)([C@@H]1OC)n1c3ccccc3c3c4c(c5c6ccccc6n2c5c31)C(=O)NC4` [STS, Staurosporine], the “start of mass cell death” value in the data set on NT2/D1 cells [1] (40 nM STS) came out at 8 h. For the same compound, the “cell viability and DNA fragmentation” value in the data set on NT2/D1 cells [1] (STS treatment) is “cell death”. The “induction of NT2/A cells (astrocytic morphology)” value with NT2/D1 cells [2] was “induced NT2/A cells; also recorded: induces morphological and functional differentiation”. The “astrocyte specific gene expression (GFAP, LIF, Delta, Jagged-1, BMP-2, 4, BMP-7, GLT-1/EAAT-2, GLAST/EAAT-1)” value with NT2/D1 cells [3] (40 nM STS, RT-PCR) is “induced astrocyte specific gene expression”. Moreover, in the data set on NT2/D1 cells [3] (during STS-induced astro-gliogenesis), the APP gene expression result was “increased in time-dependent manner; also recorded: higher expression level”.

The record behind these values is patent US20100196326A1, “METHOD AND SYSTEM FOR BIASING CELLULAR DEVELOPMENT” (priority 2004, published 2010).
